Source: patent publication US20250011281A1, “THERAPEUTIC ALKALOID COMPOUNDS” (Sensorium Therapeutics, Inc., priority 2023, published 2025)
Read-outs that look alike come from different tables or passages of the source.

Tests used:
SERT = biological target: T1, SERT (Homo sapiens, UniProt P31645); experiment: SERT Inhibition Assay (Neurotransmitter Transportation Fluorescence assay); type: cell-based; details: for IC50 Ratio to (−) Mesembrine: SERT assay, ratio to compound 0001
T1 construct: expressed in transfected cells
T1 sequence (P31645 whole entry, species assumed): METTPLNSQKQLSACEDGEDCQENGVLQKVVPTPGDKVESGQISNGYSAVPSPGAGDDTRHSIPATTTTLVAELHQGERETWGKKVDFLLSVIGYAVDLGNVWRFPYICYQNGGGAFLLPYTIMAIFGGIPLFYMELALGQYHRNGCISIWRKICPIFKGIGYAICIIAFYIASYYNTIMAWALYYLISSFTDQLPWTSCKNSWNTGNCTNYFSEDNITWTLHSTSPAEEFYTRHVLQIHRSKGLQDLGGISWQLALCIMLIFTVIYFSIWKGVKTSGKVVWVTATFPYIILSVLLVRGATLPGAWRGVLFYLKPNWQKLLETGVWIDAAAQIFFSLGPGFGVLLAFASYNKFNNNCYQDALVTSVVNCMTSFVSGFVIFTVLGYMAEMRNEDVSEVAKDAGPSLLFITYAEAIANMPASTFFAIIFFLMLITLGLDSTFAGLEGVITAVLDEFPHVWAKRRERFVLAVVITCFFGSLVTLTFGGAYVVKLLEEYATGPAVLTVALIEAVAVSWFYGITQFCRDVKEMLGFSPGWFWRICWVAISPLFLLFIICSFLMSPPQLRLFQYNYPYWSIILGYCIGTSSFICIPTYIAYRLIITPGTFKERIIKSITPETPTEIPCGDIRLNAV
Procedure: Example A: SERT Inhibition Assay
SERT inhibition was measured using a Neurotransmitter Transportation Fluorescence assay. Briefly, stable 5HHH cells were prepared in a 384 microwell plate. Compounds were prepared by in assay buffer (20 mM HEPES, 0.1% BSA). The compounds were added to the plated cells and incubated for 30 minutes at 37° C. 25 μL of dye solution (Molecular Devices Neurotransmitter Transporter Uptake Assay Kit) was added per well and incubated for 30 minutes at 37° C. The plates were then read on a plate reader.

[1] = Metabolic stability compared to mesembrine; type: in vitro ADME
5-HTT = 5-HTT (Homo sapiens, UniProt P31645); experiment: Potency at 5-HTT compared to mesembrine
Chain of 5-HTT (P31645 whole entry, species assumed): as above

5-HT transporter (SERT) = 5-HT transporter (SERT) (Homo sapiens, UniProt P31645); details: concentration response curves; cited from earlier work
Chain of 5-HT transporter (SERT) (P31645 whole entry, species assumed): as above

[2] = stable 5HHH cells, 30 minutes at 37° C., read-out: SERT Assay Potency Range

Row | SMILES | IC50 Ratio to (−) Mesembrine (SERT) | IC50 (SERT; [2]) [nM] | further results
1 | COc1ccc([C@@]23CCN(C)[C@@H]2C[C@H](O)[C@@H]2O[C@@H]23)cc1OC (single isomer, unassigned) [Compound 1932] | ≥10 | 100 to 500 | 
2 | COc1ccc([C@@]23CC[C@H](O)C[C@@H]2N(C)CC3)cc1OC [6-epi-mesembranol] |  |  | metabolic stability [1]: enhanced metabolic stability; potency at 5-HTT (5-HTT): decrease in potency
3 | COc1ccc([C@@]23CC[C@@H](O)C[C@@H]2N(C)CC3)cc1OC [Compound 0018, (3aS,6R,7aS)-3a-(3,4-dimethoxyphenyl)-1-methyloctahydro-1H-indol-6-ol] | ≥1.0 | < 50 | 
4 | COc1ccc([C@@]23CC[C@H](O)C[C@@H]2N(C)CC3)cc1OC [Compound 0019, (3aS,6S,7aS)-3a-(3,4-dimethoxyphenyl)-1-methyloctahydro-1H-indol-6-ol] | ≥1.0 | < 50 | 
5 | COc1ccc([C@@]23C=C[C@@H](O)C[C@@H]2N(C)CC3)cc1OC [Compound 0020] | ≥100 | 100 to 500 | 
6 | COc1ccc([C@@]23C=C[C@H](O)C[C@@H]2N(C)CC3)cc1OC [Compound 0021] | ≥10 | 100 to 500 | 
7 | COc1ccc([C@]23C=C[C@H](O)C[C@H]2N(C)CC3)cc1OC [Compound 0023] | ≥10 | 100 to 500 | 
8 | COc1ccc([C@]23C=C[C@@H](O)C[C@H]2N(C)CC3)cc1OC [Compound 0024] | ≥100 | 100 to 500 | 
9 | CCCOc1cc([C@@]23CC[C@@H](O)C[C@@H]2N(C)CC3)ccc1OC [Compound 0707] | ≥10 | 50 to 100 | 
10 | CCCOc1cc([C@@]23CC[C@H](O)C[C@@H]2N(C)CC3)ccc1OC [Compound 0708] | ≥1.0 | < 50 | 
11 | CCN1CC[C@]2(c3ccc(OC)c(OC)c3)CC[C@@H](O)C[C@H]12 [Compound 1001] | ≥100 | > 1000 | 
12 | CCN1CC[C@]2(c3ccc(OC)c(OC)c3)CC[C@H](O)C[C@H]12 [Compound 1002] | ≥100 | 500 to 1000 | 
13 | CCOc1ccc([C@@]23CC[C@@H](O)C[C@@H]2N(C)CC3)cc1OCC [Compound 1763] | ≥1.0 | < 50 | 
14 | CCOc1ccc([C@@]23CC[C@H](O)C[C@@H]2N(C)CC3)cc1OCC [Compound 1764] | ≤0.5 | < 50 | 
15 | COc1ccc([C@]23CCN(C)[C@H]2C[C@@H](O)[C@@H]2O[C@@H]23)cc1OC [Compound 1930] | ≥10 | 100 to 500 | 
16 | COc1ccc([C@]23CCN(C)[C@H]2[C@H]2CC[C@@H]3C[C@H]2O)cc1OC [Compound 1933] | ≥1.0 | < 50 | 
17 | COc1cc([C@@]23CC[C@H](O)C[C@@H]2N(C)CC3)ccc1O [Compound 2700] | ≥1.0 | < 50 | 
18 | COc1cc([C@@]23CC[C@@H](O)C[C@@H]2N(C)CC3)ccc1OC(F)F [Compound 2723] | ≤0.5 |  | IC50 (SERT): < 50 nM
19 | COc1cc([C@@]23CC[C@H](O)C[C@@H]2N(C)CC3)ccc1OC(F)F [Compound 2724] | ≤0.5 | < 50 | 
20 | COc1ccc([C@@]23C=C[C@@H](O)C[C@@H]2N(C)CC3)cc1OC [Mesembrenol, mesembrenol] |  |  | nH (5-HT transporter (SERT)): 1.1
21 | COc1ccc([C@@]23CC[C@@H](O)C[C@@H]2N(C)CC3)cc1OC [mesembranol, Mesembranol] |  |  | metabolic stability [1]: enhanced metabolic stability; potency at 5-HTT (5-HTT): decrease in potency
